From patent publication US20240262812A1, “N-SUBSTITUTED PHENYLSULFONAMIDE COMPOUND AND USE THEREOF” (Shanghai Leado Pharmatech Co., Ltd., priority 2021, published 2024)

Test system: DNBS induced colitis in Wistar rats
Assay: DNBS induced colitis model in Wistar rats
Assay type: in vivo, rat
Parameters: Degree of adhesion (score) / Degree of intestinal infarction (score) / Severity of ulcer (score) / Degree of intestinal wall thickening (score) / Macroscopic colon score: scale not given here
Details: oral once a day Day 0 to Day 6, compounds 10 mg/kg, osalazine sodium 300 mg/kg; for Degree of adhesion (score) / Degree of intestinal infarction (score) / Degree of intestinal wall thickening (score) / Severity of ulcer (score): mean score per Table 4; for Ulcer length / Ulcer width: mean
Excerpt: The therapeutic effect of compounds prepared in some examples of the present invention on 2,4-dinitrobenzenesulfonic acid (DNBS) induced ulcerative colitis in Wistar rats (corresponding to Crohn's disease) was investigated.
• Animal species and strains: Wistar rats • Administration record: No administration history • Gender and weight: Male, about 150 g • Breeding party/supplier: Shanghai SLAC Laboratory Animal Co., Ltd • Adaptation period: 5 days • Room: Regular Area Rooms • Indoor temperature: 20-26° C. • Indoor relative humidity: 40-70% • Lighting: Fluorescent lighting, 12-hour illumination (08:00-20:00) and 12-hour no illumination • Animal feeding: 2-4 rats per cage (same administration group) • Food: Unlimited access to feed (disinfected by irradiation, Jiangsu Xietong Pharmaceutical Bio-engineering Co., Ltd., China) • Water: Unlimited access to drinking water (treated with reverse osmosis and high-pressure sterilization)
A total of 80 Wistar rats were purchased from Shanghai SLAC Laboratory Animal Co., Ltd, of which 10 were used as backup animals to select animals with suitable weight range included in the groups, in order to control the fluctuation of disease severity caused by weight fluctuations.
BioBook software was used to screen 70 animals for random grouping based on animal weight to ensure that the weight values of each group of animals were similar to reduce bias.
3.1 DNBS powder was dissolved in 30% ethanol with a final concentration of 60 mg/mL.
3.2 Induction of colorectal inflammation: Before the experiment, rats were fasted for 40 hours and subcutaneously injected with 5% glucose saline during the fasting period. On the day 0 of the experiment, fasting rats were anesthetized by intraperitoneal injection of Zoletil and 5 mg/kg Xylazine. G2 group-G7 group, a hose was extended from the anus to the left curvature of the colorectum, and colorectal inflammation in rats was induced with DNBS enema. The normal control group (G1) was treated with 30% ethanol enema using the same method.
3.3. Dosage regimen: After DNBS induction in G1 and G2 groups of animals, solvent was administered. After DNBS induction in G3 group, 300 mg/kg of oxalazine sodium was administered. After DNBS induction in G4 to G7 groups, 10 mg/kg of the compounds of the present invention were administered respectively. Please refer to Table 3 for the administration time, specific administration dosage, and administration route. Starting from day 0 of modeling, the drugs were administered continuously for 7 days, and the animals were euthanized on day 6.
3.4 Testing indicators: After the experiment, all animals were euthanized by inhaling excessive CO2 and dislocation of cervical vertebra. After the abdominal cavity was cut open, the colorectum was taken out and the length of it was immediately measured. Then the colorectum was longitudinally cut open and rinsed clean. The weight of the colorectum and the area of the ulcer were recorded and the whole was photographed. At the same time, the damage to the rat colorectum was evaluated macroscopically according to Table 4.
The health status of animals and their comprehensive response to surgery and medication were observed every day.
The experimental data was calculated as mean±standard error. Statistical analysis was performed using Graphpad Prism, SPSS, or Sigmaplot software. The specific data is presented in the form of charts. P<0.05 is considered to have statistical differences.

| Compound | Degree of adhesion (score) | Degree of intestinal infarction (score) | Degree of intestinal wall thickening (score) | Severity of ulcer (score) | Ulcer length | Ulcer width |
| --- | --- | --- | --- | --- | --- | --- |
| NCc1ccc(NS(=O)(=O)c2ccsc2)c(-c2ccco2)c1 [ID-5] | 0.00 | 0.00 | 0.10 | 0.70 | 0.34 cm | 0.12 cm |
| CNCc1ccc(-c2cc[nH]n2)c(NS(=O)(=O)c2ccccc2)c1 [IA-55, N-(5-((methylamino)methyl)-2-(1H-pyrazol-3-yl)phenyl)benzenesulfonamide] | 0.10 | 0.10 | 0.30 | 1.20 | 0.60 cm | 0.40 cm |
| CNCc1ccc(NS(=O)(=O)c2ccsc2)c(-c2ccco2)c1 [IA-30] | 0.00 | 0.00 | 0.13 | 0.80 | 0.33 cm | 0.19 cm |
| CNCc1ccc(-c2nccs2)c(NS(=O)(=O)c2ccccc2)c1 [IA-51, N-(5-((methylamino)methyl)-2-(thiazol-2-yl)phenyl)benzenesulfonamide] | 0.07 | 0.00 | 0.27 | 0.60 | 0.31 cm | 0.20 cm |
